Data: patent publication US4335249A, “Herbicidal diphenyl ethers, sulfides, sulfoxides and sulfones” (Rohm and Haas Company, priority 1976, dated 1982)

Tests used:
Format in all cases: in vivo
[1] = system: yellow nutsedge (Cyperus esculentus); assay: Postemergence herbicidal activity, yellow nutsedge; details: for % control, Nutsedge: Post
How it was run: (§1)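 Compound in acetone/water sprayed on soil flats at 50 gal/acre carrier volume, at rates given in lb/A. Preemergence: applied right after planting; postemergence: applied two weeks after germination. Scored about two weeks later as average percent of plants killed.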

marigold (Tagetes spp.) [2] = assay: Preemergence herbicidal activity, marigold; details: for % control, Marigold: Pre
How it was run: as §1

[3] = system: barnyardgrass (Echinochloa crusgalli); assay: Preemergence herbicidal activity, barnyardgrass; details: Pre
How it was run: (§2)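 Acetone solution diluted w/ water; spray, carrier 50 gal/acre equivalent; rate in lb/A. Pre: flats sprayed right after sowing. Post: sprayed 2 wk after germination. Weed control scored.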

[4] = system: yellow nutsedge (Cyperus esculentus); assay: Preemergence herbicidal activity, yellow nutsedge; details: for % control, Nutsedge: Pre
How it was run: as §1

foxtail (Setaria spp.) [5] = assay: Preemergence herbicidal activity, foxtail; details: Pre
How it was run: as §1

foxtail (Setaria spp.) [6] = assay: Postemergence herbicidal activity, foxtail; details: Post
How it was run: as §1

[7] = system: velvetleaf (Abutilon theophrasti); assay: Postemergence herbicidal activity, velvetleaf; details: for % control, Velvetleaf: Post
How it was run: as §2

marigold (Tagetes spp.) [8] = assay: Postemergence herbicidal activity, marigold; details: for % control, Marigold: Post
How it was run: as §1

[9] = system: tomato (Lycopersicon esculentum); assay: Postemergence herbicidal activity, tomato; details: Post
How it was run: as §1

[10] = system: velvetleaf (Abutilon theophrasti); assay: Preemergence herbicidal activity, velvetleaf; details: Pre
How it was run: as §1

[11] = system: barnyardgrass (Echinochloa crusgalli); assay: Postemergence herbicidal activity, barnyardgrass; details: Post
How it was run: as §2

[12] = system: morningglory (Ipomoca spp.); assay: Postemergence herbicidal activity, morningglory; details: for % control, Morningglory: Post
How it was run: as §1

[13] = system: downybrome (Bromus tectorum); assay: Preemergence herbicidal activity, downybrome; details: Pre
How it was run: as §1

[14] = system: downybrome (Bromus tectorum); assay: Postemergence herbicidal activity, downybrome; details: Post
How it was run: as §1

[15] = system: cocklebur (Xanthium pensylvanicum); assay: Preemergence herbicidal activity, cocklebur; details: for % control, Cocklebur: Pre
How it was run: as §1

[16] = system: morningglory (Ipomoca spp.); assay: Preemergence herbicidal activity, morningglory; details: for % control, Morningglory: Pre
How it was run: as §1

wild oats (Avena fatua) [17] = assay: Postemergence herbicidal activity, wild oats; details: Post
How it was run: as §1

[18] = system: tomato (Lycopersicon esculentum); assay: Preemergence herbicidal activity, tomato; details: Pre
How it was run: as §1

wild oats (Avena fatua) [19] = assay: Preemergence herbicidal activity, wild oats; details: Pre
How it was run: as §1

[20] = system: cocklebur (Xanthium pensylvanicum); assay: Postemergence herbicidal activity, cocklebur; details: for % control, Cocklebur: Post
How it was run: as §1

Structure (SMILES)	% control, Nutsedge ([1]; 2 lb/A)	% control, Marigold (marigold (Tagetes spp.) [2]; 2 lb/A)	% control, Barnyardgrass ([3]; 2 lb/A)	% control, Nutsedge ([4]; 2 lb/A)	% control, Foxtail (foxtail (Setaria spp.) [5]; 2 lb/A)	% control, Foxtail (foxtail (Setaria spp.) [6]; 2 lb/A)	% control, Velvetleaf ([7]; 2 lb/A)	% control, Marigold (marigold (Tagetes spp.) [8]; 2 lb/A)	% control, Tomato ([9]; 2 lb/A)	% control, Velvetleaf ([10]; 2 lb/A)	% control, Barnyardgrass ([11]; 2 lb/A)	% control, Morningglory ([12]; 2 lb/A)	% control, Downybrome ([13]; 2 lb/A)	% control, Downybrome ([14]; 2 lb/A)	% control, Cocklebur ([15]; 2 lb/A)	% control, Morningglory ([16]; 2 lb/A)	% control, Wild oat (wild oats (Avena fatua) [17]; 2 lb/A)	% control, Tomato ([18]; 2 lb/A)	% control, Wild oat (wild oats (Avena fatua) [19]; 2 lb/A)	% control, Cocklebur ([20]; 2 lb/A)	other results
CC(Oc1ccc(Oc2ccc(C(F)(F)F)cc2Cl)cc1)C(=O)O (centres unmarked) [Example 13]	0%	0%	100%	0%	100%	90%	0%	0%	0%	0%	100%	0%	70%	20%	0%	0%	60%	0%	70%	0%	–
CC(Oc1ccc(Oc2ccc(C(F)(F)F)cc2Cl)cc1)C(=O)O (centres unmarked) [Example 16]	0%	0%	100%	0%	100%	90%	0%	0%	0%	0%	100%	0%	70%	0%	0%	0%	80%	0%	70%	0%	–
CCOC(=O)C(C)Oc1ccc(Oc2ccc(C(F)(F)F)cc2Cl)cc1Cl (centres unmarked) [Example 7]	–	–	–	–	–	–	–	–	–	–	–	–	–	–	–	–	–	–	–	–	pest or weed control at 2241.7 g/ha ([1]; Cyperus, post-emergence, 336 h, 2 lb/A): 0%; pest or weed control at 2241.7 g/ha (marigold (Tagetes spp.) [2]; pre-emergence, 336 h, 2 lb/A): 0%; pest or weed control at 2241.7 g/ha ([3]; Echinochloa crus-galli, pre-emergence, 336 h, 2 lb/A): 0%; pest or weed control at 2241.7 g/ha ([4]; Cyperus, pre-emergence, 336 h, 2 lb/A): 0%; pest or weed control at 2241.7 g/ha (foxtail (Setaria spp.) [5]; Setaria, pre-emergence, 336 h, 2 lb/A): 90%; pest or weed control at 2241.7 g/ha (foxtail (Setaria spp.) [6]; Setaria, post-emergence, 336 h, 2 lb/A): 40%; pest or weed control at 2241.7 g/ha ([7]; Abutilon theophrasti, post-emergence, 336 h, 2 lb/A): 80%; pest or weed control at 2241.7 g/ha (marigold (Tagetes spp.) [8]; post-emergence, 336 h, 2 lb/A): 20%; pest or weed control at 2241.7 g/ha ([9]; Solanum lycopersicum, post-emergence, 336 h, 2 lb/A): 80%; pest or weed control at 2241.7 g/ha ([10]; Abutilon theophrasti, pre-emergence, 336 h, 2 lb/A): 0%; pest or weed control at 2241.7 g/ha ([11]; Echinochloa crus-galli, post-emergence, 336 h, 2 lb/A): 10%; pest or weed control at 2241.7 g/ha ([12]; Ipomoea, post-emergence, 336 h, 2 lb/A): 100%; pest or weed control at 2241.7 g/ha ([13]; Bromus tectorum, pre-emergence, 336 h, 2 lb/A): 0%; pest or weed control at 2241.7 g/ha ([14]; Bromus tectorum, post-emergence, 336 h, 2 lb/A): 0%; pest or weed control at 2241.7 g/ha ([15]; Xanthium strumarium, pre-emergence, 336 h, 2 lb/A): 0%; pest or weed control at 2241.7 g/ha ([16]; Ipomoea, pre-emergence, 336 h, 2 lb/A): 0%; pest or weed control at 2241.7 g/ha (wild oats (Avena fatua) [17]; Avena fatua, post-emergence, 336 h, 2 lb/A, read-out: % control, Wild oat): 20%; pest or weed control at 2241.7 g/ha ([18]; Solanum lycopersicum, pre-emergence, 336 h, 2 lb/A): 0%; pest or weed control at 2241.7 g/ha (wild oats (Avena fatua) [19]; Avena fatua, pre-emergence, 336 h, 2 lb/A, read-out: % control, Wild oat): 0%; pest or weed control at 2241.7 g/ha ([20]; Xanthium strumarium, post-emergence, 336 h, 2 lb/A): 80%
CCOC(=O)C(C)Oc1ccc([S+]([O-])c2cccc(C(F)(F)F)c2)cc1 (centres unmarked) [Example 50]	–	–	–	–	–	–	–	–	–	–	–	–	–	–	–	–	–	–	–	–	pest or weed control at 4483.4 g/ha ([1]; Cyperus, post-emergence, 336 h, 4 lb/A): 0%; pest or weed control at 4483.4 g/ha (marigold (Tagetes spp.) [2]; pre-emergence, 336 h, 4 lb/A): 0%; pest or weed control at 4483.4 g/ha ([3]; Echinochloa crus-galli, pre-emergence, 336 h, 4 lb/A): 0%; pest or weed control at 4483.4 g/ha ([4]; Cyperus, pre-emergence, 336 h, 4 lb/A): 0%; pest or weed control at 4483.4 g/ha (foxtail (Setaria spp.) [5]; Setaria, pre-emergence, 336 h, 4 lb/A): 0%; pest or weed control at 4483.4 g/ha (foxtail (Setaria spp.) [6]; Setaria, post-emergence, 336 h, 4 lb/A): 0%; pest or weed control at 4483.4 g/ha ([7]; Abutilon theophrasti, post-emergence, 336 h, 4 lb/A): 0%; pest or weed control at 4483.4 g/ha (marigold (Tagetes spp.) [8]; post-emergence, 336 h, 4 lb/A): 0%; pest or weed control at 4483.4 g/ha ([9]; Solanum lycopersicum, post-emergence, 336 h, 4 lb/A): 20%; pest or weed control at 4483.4 g/ha ([10]; Abutilon theophrasti, pre-emergence, 336 h, 4 lb/A): 0%; pest or weed control at 4483.4 g/ha ([11]; Echinochloa crus-galli, post-emergence, 336 h, 4 lb/A): 20%; pest or weed control at 4483.4 g/ha ([12]; Ipomoea, post-emergence, 336 h, 4 lb/A): 0%; pest or weed control at 4483.4 g/ha ([13]; Bromus tectorum, pre-emergence, 336 h, 4 lb/A): 0%; pest or weed control at 4483.4 g/ha ([14]; Bromus tectorum, post-emergence, 336 h, 4 lb/A): 0%; pest or weed control at 4483.4 g/ha ([15]; Xanthium strumarium, pre-emergence, 336 h, 4 lb/A): 0%; pest or weed control at 4483.4 g/ha ([16]; Ipomoea, pre-emergence, 336 h, 4 lb/A): 0%; pest or weed control at 4483.4 g/ha (wild oats (Avena fatua) [17]; Avena fatua, post-emergence, 336 h, 4 lb/A, read-out: % control, Wild oat): 20%; pest or weed control at 4483.4 g/ha ([18]; Solanum lycopersicum, pre-emergence, 336 h, 4 lb/A): 0%; pest or weed control at 4483.4 g/ha (wild oats (Avena fatua) [19]; Avena fatua, pre-emergence, 336 h, 4 lb/A, read-out: % control, Wild oat): 0%; pest or weed control at 4483.4 g/ha ([20]; Xanthium strumarium, post-emergence, 336 h, 4 lb/A): 0%
